Results on four compounds are retold here after ChEMBL document CHEMBL1127748, “Binding of fluorescent and spin-labeled C-terminal hirudin analogs to thrombin” (J Med Chem, 1994).

Assay [1] has as its target T1, Prothrombin (Homo sapiens, UniProt P00734). As to the kind of experiment: Binding affinity values determined by clotting inhibition assays.
In assay [2] the target is T1, Prothrombin. As to the kind of experiment: Inhibitory concentration against Thrombin; 0.029-0.15 uM.

`CC[C@H](C)[C@H](NC(=O)[C@H]1CCCN1C(=O)[C@H](CCC(=O)O)NC(=O)[C@@H](Cc1ccc(O)cc1)NC(=O)CC(N)C(=O)CCCCCCCNC(=O)c1ccccc1N)C(=O)N1CCC[C@@H]1C(=O)N[C@@H](CCC(=O)O)C(=O)N[C@H](CCC(=O)O)C(=O)N[C@@H](C)C(=O)N[C@H](CC1CCCCC1)C(=O)N[C@@H](CCC(=O)O)C(=O)O` (some centres undefined): on Prothrombin [1], the Ki worked out at 100 nM.
`CC[C@H](C)[C@H](NC(=O)[C@H]1CCCN1C(=O)[C@H](CCC(=O)O)NC(=O)[C@@H](Cc1ccc(O)cc1)NC(=O)CC(N)C(=O)CCCCCCCNc1cccc2c(N(C)C)cccc12)C(=O)N1CCC[C@@H]1C(=O)N[C@@H](CCC(=O)O)C(=O)N[C@H](CCC(=O)O)C(=O)N[C@@H](C)C(=O)N[C@H](CC1CCCCC1)C(=O)N[C@@H](CCC(=O)O)C(=O)O` (some centres undefined) returned an inhibitory constant (Ki) at Prothrombin [1] of 100 nM.
At Prothrombin [2], `CC[C@H](C)[C@H](NC(=O)[C@H]1CCCN1C(=O)[C@H](CCC(=O)O)NC(=O)[C@@H](Cc1ccc(O)cc1)NC(=O)CCC(=O)O)C(=O)N1CCC[C@@H]1C(=O)N[C@@H](CCC(=O)O)C(=O)N[C@H](CCC(=O)O)C(=O)N[C@@H](C)C(=O)N[C@H](CC1CCCCC1)C(=O)N[C@@H](CCC(=O)O)C(=O)O` came in with an IC50 of 29 nM.
The compound `CC[C@H](C)[C@H](NC(=O)[C@H]1CCCN1C(=O)[C@H](CCC(=O)O)NC(=O)[C@@H](Cc1ccc(O)cc1)NC(=O)CC(N)C(=O)CCCCCCCNC(=O)C1=CC(C)(C)N(O)C1(C)C)C(=O)N1CCC[C@@H]1C(=O)N[C@@H](CCC(=O)O)C(=O)N[C@H](CCC(=O)O)C(=O)N[C@@H](C)C(=O)N[C@H](CC1CCCCC1)C(=O)N[C@@H](CCC(=O)O)C(=O)O` (some centres undefined) registered a Ki at Prothrombin [1] of 100 nM.
